According to US10406207B2, “Peptide conjugates of GLP-1 receptor agonists and gastrin and their use” (priority 2010, dated 2019):
pEC50: −log10 of the molar value. Read-outs that look alike come from different tables or passages of the source. Square brackets hold non-standard residues; d marks the D form. Peptide text beside a SMILES is read from it. Orn = NCCC[C@H](N)C(=O)O; AEEA = NCCOCCOCC(=O)O

How the values were obtained:
[1] = target: T1, human CCK-B R (Homo sapiens, UniProt P32239); assay: Human CCK-B receptor efficacy assay (AlphaScreen SureFire p-ERK); type: cell-based; settings: read-out: hCCK-B R EC50
T1 construct: expressed in transfected cells
T1 sequence (P32239 1-447): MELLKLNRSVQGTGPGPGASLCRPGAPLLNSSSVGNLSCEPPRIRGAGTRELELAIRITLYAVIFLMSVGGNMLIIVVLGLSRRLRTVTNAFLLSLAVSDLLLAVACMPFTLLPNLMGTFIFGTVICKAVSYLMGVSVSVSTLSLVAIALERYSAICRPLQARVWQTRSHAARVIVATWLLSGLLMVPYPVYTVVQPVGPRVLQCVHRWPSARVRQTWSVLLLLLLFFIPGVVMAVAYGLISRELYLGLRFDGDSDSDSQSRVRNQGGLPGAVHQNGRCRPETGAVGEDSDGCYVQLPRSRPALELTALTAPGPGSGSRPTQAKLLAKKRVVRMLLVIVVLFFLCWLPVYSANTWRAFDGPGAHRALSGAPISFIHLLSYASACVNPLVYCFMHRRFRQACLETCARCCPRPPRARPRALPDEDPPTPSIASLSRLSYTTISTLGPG

[2] = target: T2, human GLP-1 R (Homo sapiens, UniProt P43220); assay: Human GLP-1 receptor efficacy assay (cAMP induction, FlashPlate); type: cell-based; settings: Table 2; read-out: hGLP-1 R EC50
T2 construct: expressed in transfected cells
Method: On the day of analysis, growth medium was removed and the cells were washed once with 200 μl Tyrode buffer [Tyrode's Salts (9.6 g/l), 10 mM HEPES, pH 7.4]. […] The reaction was stopped by addition of 25 μl 0.5 M HCl and incubated on ice for 60 min.

T2 sequence (P43220 24-463): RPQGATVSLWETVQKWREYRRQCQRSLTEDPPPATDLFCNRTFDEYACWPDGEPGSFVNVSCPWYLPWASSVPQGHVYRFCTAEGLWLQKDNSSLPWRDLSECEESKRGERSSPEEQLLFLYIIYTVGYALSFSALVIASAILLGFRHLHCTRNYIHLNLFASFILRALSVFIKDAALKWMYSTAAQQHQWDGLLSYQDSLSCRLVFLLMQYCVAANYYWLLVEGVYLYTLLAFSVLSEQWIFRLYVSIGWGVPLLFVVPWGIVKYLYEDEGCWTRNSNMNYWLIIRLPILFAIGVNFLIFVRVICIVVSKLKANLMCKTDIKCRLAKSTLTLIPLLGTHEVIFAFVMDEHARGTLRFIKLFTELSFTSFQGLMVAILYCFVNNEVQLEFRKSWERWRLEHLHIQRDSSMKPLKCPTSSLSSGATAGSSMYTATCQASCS

SMILES | pEC50 ([1]; Table 3) | pEC50 ([1]; Table 2) | pEC50 [2]
CCCCCCCCCCCCCCCC(=O)N[C@@H](CCC(=O)NCCCC[C@H](NC(=O)[C@H](C)NC(=O)[C@H](C)NC(=O)[C@H](CCC(N)=O)NC(=O)CNC(=O)[C@H](CCC(=O)O)NC(=O)[C@H](CC(C)C)NC(=O)[C@H](Cc1ccc(O)cc1)NC(=O)[C@H](CO)NC(=O)[C@H](CO)NC(=O)[C@@H](NC(=O)[C@H](CC(=O)O)NC(=O)[C@H](CO)NC(=O)[C@@H](NC(=O)[C@H](Cc1ccccc1)NC(=O)[C@@H](NC(=O)CNC(=O)[C@H](CCC(=O)O)NC(=O)[C@H](C)NC(=O)[C@@H](N)Cc1c[nH]cn1)[C@@H](C)O)[C@@H](C)O)C(C)C)C(=O)N[C@@H](CCC(=O)O)C(=O)N[C@@H](Cc1ccccc1)C(=O)N[C@H](C(=O)N[C@@H](C)C(=O)N[C@@H](Cc1c[nH]c2ccccc12)C(=O)N[C@@H](CC(C)C)C(=O)N[C@H](C(=O)N[C@@H](CCCCN)C(=O)NCC(=O)N[C@@H](CCCNC(=N)N)C(=O)NCC(=O)NCCOCCOCC(=O)NCCOCCOCC(=O)N[C@@H](Cc1ccc(O)cc1)C(=O)NCC(=O)N[C@@H](Cc1c[nH]c2ccccc12)C(=O)N[C@@H](CC(C)C)C(=O)N[C@@H](CC(=O)O)C(=O)N[C@@H](Cc1ccccc1)C(N)=O)C(C)C)[C@@H](C)CC)C(=O)O [Compound 109, [Lys(Hexadecanoyl-isoGlu)26]GLP-1(7-37)-Peg3-Peg3-[Leu4]Gastrin6] | 7.59 |  | 
CC[C@H](C)[C@H](NC(=O)[C@H](Cc1ccccc1)NC(=O)[C@H](CC(C)C)NC(=O)[C@H](CCCNC(=N)N)NC(=O)[C@@H](NC(=O)[C@H](C)NC(=O)[C@H](CCC(=O)O)NC(=O)[C@H](CCC(=O)O)NC(=O)[C@H](CCC(=O)O)NC(=O)[C@H](CC(C)C)NC(=O)[C@H](Cc1ccc(O)cc1)NC(=O)[C@H](CCCCN)NC(=O)[C@H](CO)NC(=O)[C@H](CC(C)C)NC(=O)[C@H](CCC(=O)O)NC(=O)[C@H](CO)NC(=O)[C@@H](NC(=O)[C@H](Cc1ccccc1)NC(=O)[C@@H](NC(=O)CNC(=O)[C@H](CCC(=O)O)NC(=O)CNC(=O)[C@@H](N)Cc1c[nH]cn1)[C@@H](C)O)[C@@H](C)O)C(C)C)C(=O)N[C@@H](CCC(=O)O)C(=O)N[C@@H](Cc1ccccc1)C(=O)N[C@@H](CC(C)C)C(=O)N[C@@H](CCCCN)C(=O)NCCOCCOCC(=O)N[C@@H](CCCN)C(=O)N[C@@H](Cc1c[nH]c2ccccc12)C(=O)N[C@@H](CC(C)C)C(=O)N[C@@H](CC(=O)O)C(=O)N[C@@H](Cc1ccccc1)C(N)=O [Compound 99, [Glu9,Leu14,Phe25,Tyr13]Exendin-4(1-27)-Peg3-Orn-[Leu2]Gastrin4] (H-HGEGTFTSELSKYLEEEAVRLFIEFLK[AEEA][Orn]WLDF-NH2) |  | 7.29 | 10.39
CC[C@H](C)[C@H](NC(=O)[C@H](Cc1ccccc1)NC(=O)[C@H](CC(C)C)NC(=O)[C@H](CCCNC(=N)N)NC(=O)[C@@H](NC(=O)[C@H](C)NC(=O)[C@H](CCC(=O)O)NC(=O)[C@H](CCC(=O)O)NC(=O)[C@H](CCC(=O)O)NC(=O)[C@H](CC(C)C)NC(=O)[C@H](Cc1ccc(O)cc1)NC(=O)[C@H](CCCCN)NC(=O)[C@H](CO)NC(=O)[C@H](CC(C)C)NC(=O)[C@H](CCC(=O)O)NC(=O)[C@H](CO)NC(=O)[C@@H](NC(=O)[C@H](Cc1ccccc1)NC(=O)[C@@H](NC(=O)CNC(=O)[C@H](CCC(=O)O)NC(=O)CNC(=O)[C@@H](N)Cc1c[nH]cn1)[C@@H](C)O)[C@@H](C)O)C(C)C)C(=O)N[C@@H](CCC(=O)O)C(=O)N[C@@H](Cc1ccccc1)C(=O)N[C@@H](CC(C)C)C(=O)N[C@@H](CCCCN)C(=O)NCCOCCOCC(=O)NCCOCCOCC(=O)N[C@@H](Cc1ccc(O)cc1)C(=O)NCC(=O)N[C@@H](Cc1ccccc1)C(=O)N[C@@H](CC(C)C)C(=O)N[C@@H](CC(=O)O)C(=O)N[C@@H](Cc1ccccc1)C(N)=O [Compound 90, [Glu9,Leu14,Phe25,Tyr13]Exendin-4(1-27)-Peg3-Peg3-[Leu4,Phe3]Gastrin6] (H-HGEGTFTSELSKYLEEEAVRLFIEFLK[AEEA][AEEA]YGFLDF-NH2) |  | 5.89 | 10.49
CC[C@H](C)[C@H](NC(=O)[C@H](Cc1ccccc1)NC(=O)[C@H](CCC(=O)O)NC(=O)[C@H](CCCCN)NC(=O)[C@H](C)NC(=O)[C@H](C)NC(=O)[C@H](CCC(N)=O)NC(=O)CNC(=O)[C@H](CCC(=O)O)NC(=O)[C@H](CC(C)C)NC(=O)[C@H](Cc1ccc(O)cc1)NC(=O)[C@H](CO)NC(=O)[C@H](CO)NC(=O)[C@@H](NC(=O)[C@H](CC(=O)O)NC(=O)[C@H](CO)NC(=O)[C@@H](NC(=O)[C@H](Cc1ccccc1)NC(=O)[C@@H](NC(=O)CNC(=O)[C@H](CCC(=O)O)NC(=O)[C@H](C)NC(=O)[C@@H](N)Cc1c[nH]cn1)[C@@H](C)O)[C@@H](C)O)C(C)C)C(=O)N[C@@H](C)C(=O)N[C@@H](Cc1c[nH]c2ccccc12)C(=O)N[C@@H](CC(C)C)C(=O)N[C@H](C(=O)N[C@@H](CCCNC(=N)N)C(=O)NCC(=O)N[C@@H](CCCNC(=N)N)C(=O)NCC(=O)NCCOCCOCC(=O)NCCOCCOCC(=O)N[C@@H](Cc1ccc(O)cc1)C(=O)NCC(=O)N[C@@H](Cc1c[nH]c2ccccc12)C(=O)N[C@@H](CC(C)C)C(=O)N[C@@H](CC(=O)O)C(=O)N[C@@H](Cc1ccccc1)C(N)=O)C(C)C [Compound 113, [Arg34]GLP-1(7-37)-Peg3-Peg3-[Leu4]Gastrin6] | 7.62 |  | 
CCCCCCCCCCCCCCCC(=O)N[C@@H](CCC(=O)NCCCC[C@H](NC(=O)[C@H](C)NC(=O)[C@H](C)NC(=O)[C@H](CCC(N)=O)NC(=O)CNC(=O)[C@H](CCC(=O)O)NC(=O)[C@H](CC(C)C)NC(=O)[C@H](Cc1ccc(O)cc1)NC(=O)[C@H](CO)NC(=O)[C@H](CO)NC(=O)[C@@H](NC(=O)[C@H](CC(=O)O)NC(=O)[C@H](CO)NC(=O)[C@@H](NC(=O)[C@H](Cc1ccccc1)NC(=O)[C@@H](NC(=O)CNC(=O)[C@H](CCC(=O)O)NC(=O)[C@H](C)NC(=O)[C@@H](N)Cc1c[nH]cn1)[C@@H](C)O)[C@@H](C)O)C(C)C)C(=O)N[C@@H](CCC(=O)O)C(=O)N[C@@H](Cc1ccccc1)C(=O)N[C@H](C(=O)N[C@@H](C)C(=O)N[C@@H](Cc1c[nH]c2ccccc12)C(=O)N[C@@H](CC(C)C)C(=O)N[C@H](C(=O)N[C@@H](CCCNC(=N)N)C(=O)NCC(=O)N[C@@H](CCCNC(=N)N)C(=O)NCC(=O)NCCOCCOCC(=O)NCCOCCOCC(=O)N[C@@H](Cc1ccc(O)cc1)C(=O)NCC(=O)N[C@@H](Cc1c[nH]c2ccccc12)C(=O)N[C@@H](CC(C)C)C(=O)N[C@@H](CC(=O)O)C(=O)N[C@@H](Cc1ccccc1)C(N)=O)C(C)C)[C@@H](C)CC)C(=O)O [Compound 107, [Arg34,Lys(Hexadecanoyl-isoGlu)26]GLP-1(7-37)-Peg3-Peg3-[Leu4]Gastrin6] | 7.54 |  | 
CCCCCCCCCCCCCCCC(=O)N[C@@H](CCC(=O)NCCCC[C@H](NC(=O)[C@@H](NC(=O)[C@H](CC(C)C)NC(=O)[C@H](Cc1c[nH]c2ccccc12)NC(=O)[C@H](C)NC(=O)[C@@H](NC(=O)[C@H](Cc1ccccc1)NC(=O)[C@H](CCC(=O)O)NC(=O)[C@H](CCCCN)NC(=O)[C@H](C)NC(=O)[C@H](C)NC(=O)[C@H](CCC(N)=O)NC(=O)CNC(=O)[C@H](CCC(=O)O)NC(=O)[C@H](CC(C)C)NC(=O)[C@H](Cc1ccc(O)cc1)NC(=O)[C@H](CO)NC(=O)[C@H](CO)NC(=O)[C@@H](NC(=O)[C@H](CC(=O)O)NC(=O)[C@H](CO)NC(=O)[C@@H](NC(=O)[C@H](Cc1ccccc1)NC(=O)[C@@H](NC(=O)CNC(=O)[C@H](CCC(=O)O)NC(=O)[C@H](C)NC(=O)[C@@H](N)Cc1c[nH]cn1)[C@@H](C)O)[C@@H](C)O)C(C)C)[C@@H](C)CC)C(C)C)C(=O)NCC(=O)N[C@@H](CCCNC(=N)N)C(=O)NCC(=O)NCCOCCOCC(=O)NCCOCCOCC(=O)N[C@@H](Cc1ccc(O)cc1)C(=O)NCC(=O)N[C@@H](Cc1c[nH]c2ccccc12)C(=O)N[C@@H](CC(C)C)C(=O)N[C@@H](CC(=O)O)C(=O)N[C@@H](Cc1ccccc1)C(N)=O)C(=O)O [Compound 106, [Lys(Hexadecanoyl-isoGlu)34]GLP-1(7-37)-Peg3-Peg3-[Leu4]Gastrin6] | 7.74 |  | 
CC[C@H](C)[C@H](NC(=O)[C@H](Cc1ccccc1)NC(=O)[C@H](CC(C)C)NC(=O)[C@H](CCCNC(=N)N)NC(=O)[C@@H](NC(=O)[C@H](C)NC(=O)[C@H](CCC(=O)O)NC(=O)[C@H](CCC(=O)O)NC(=O)[C@H](CCC(=O)O)NC(=O)[C@H](CC(C)C)NC(=O)[C@H](Cc1ccc(O)cc1)NC(=O)[C@H](CCCCN)NC(=O)[C@H](CO)NC(=O)[C@H](CC(C)C)NC(=O)[C@H](CC(=O)O)NC(=O)[C@H](CO)NC(=O)[C@@H](NC(=O)[C@H](Cc1ccccc1)NC(=O)[C@@H](NC(=O)CNC(=O)[C@H](CCC(=O)O)NC(=O)CNC(=O)[C@@H](N)Cc1c[nH]cn1)[C@@H](C)O)[C@@H](C)O)C(C)C)C(=O)N[C@@H](CCC(=O)O)C(=O)N[C@@H](Cc1ccccc1)C(=O)N[C@@H](CC(C)C)C(=O)N[C@@H](CCCCN)C(=O)NCCOCCOCC(=O)NCCOCCOCC(=O)N[C@@H](Cc1ccc(O)cc1)C(=O)NCC(=O)N[C@@H](Cc1ccccc1)C(=O)N[C@@H](CC(C)C)C(=O)N[C@@H](CC(=O)O)C(=O)N[C@@H](Cc1ccccc1)C(N)=O [Compound 89, [Leu14, Phe25,Tyr13]Exendin-4(1-27)-Peg3-Peg3-[Leu4, Phe3]Gastrin6] (H-HGEGTFTSDLSKYLEEEAVRLFIEFLK[AEEA][AEEA]YGFLDF-NH2) |  | 5.92 | 
